Laboratory results as given in patent US11292781B2, “Pyrimidine tricyclic enone derivatives for inhibition of ROR-gamma and other uses” (REATA PHARMACEUTICALS, INC., priority 2016, dated 2022).

What was measured:
[1] = system: IL-17A levels in primary human CD4+ T cells differentiated into Th17 cells; assay: IL-17 release from differentiated primary human T-cells (IL-17A HTRF); assay type: cell-based; settings: primary human CD4+ T cells, Th17 differentiation, 46-hour incubation; read-out: hIL17 IC50
Experimental: C. IL-17 Release from Differentiated Primary Human T-Cells and Cell Viability Primary human cryopreserved CD4+ T Cells (Lonza, donor #0000402103) were plated in Lymphocyte Growth Medium-3 (LGM-3, Lonza) according to the manufacturer's recommendations, and allowed to recover for approximately 3 hours at 37° C. with 5% CO2 in a humidified atmosphere. […] Triplicate wells were plated for each test condition. DMSO (final concentration ≤0.1%) was used as the vehicle. Immediately after plating, CD4+ T cells were activated by adding Dynabeads Human T-Activator CD3/CD28 (Life Technologies; bead-to-cell ratio of 1:2.5) and differentiated into Th17 cells by adding a mixture of the following cytokines: transforming growth factor-β (TGF-β, 5 ng/mL), IL-6 (20 ng/mL), IL-23 (20 ng/mL), and […] (10 ng/mL). Undifferentiated control cells received only cytokine IL-2 (50 ng/mL). All human recombinant cytokines were purchased from R&D Systems. Following a 46-hour incubation at 37° C. with 5% CO2 in a humidified atmosphere, the plates were centrifuged for 3 minutes at 250×g, and half of the supernatant was transferred to a new plate to be used in the IL-17A assay (see below). Cell viability was assessed in the original plate using the CyQuant Direct Assay (Life Technologies). CyQuant values from test compound samples were normalized to those from DMSO-treated samples. The concentration of IL-17A in the supernatant was measured using the Homogeneous Time-Resolved Fluorescence (HTRF) assay (Cisbio Bioassays) according to the manufacturer's protocol. The assay was performed at room temperature in low volume, solid white 384-well plates (Greiner Bio-One). […] A non-linear regression analysis with log (inhibitor) vs. normalized response using a variable slope was applied to fit the data and determine the IC50 values for inhibition of IL-17A levels and cell viability.

[2] = system: Nrf2 transcription factor (GST ARE luciferase reporter in AREc32 cells); assay: AREc32 luciferase reporter assay; assay type: cell-based, human; settings: EC2×: concentration required to increase GST ARE luciferase reporter activity by 2-fold, 19 hours
Description: A. AREc32 Luciferase Reporter Assay The AREc32 luciferase reporter assay allows for quantitative assessment of the endogenous activity of the Nrf2 transcription factor in cultured mammalian cells. AREc32 cells are derived from MCF-7 human breast carcinoma cells that were stably transfected with a reporter construct that contains the firefly luciferase gene located downstream of eight copies of the rat GSTA2 antioxidant response element (ARE) sequence (Wang et al., 2006; CXR Biosciences). Active NRF2 binds to the ARE sequences and increases expression of the firefly luciferase gene. […] Luciferase activity was determined using the ONE-Glo Luciferase assay (Promega). The luminescence signal was measured on a BMG Pherastar microplate reader. The mean luminescence value from test compound-treated wells was normalized to that from DMSO-treated wells and was represented as fold-induction. Data were analyzed using GraphPad Prism version 6.00 for Windows, GraphPad Software, La Jolla Calif. USA. A non-linear regression curve with log (agonist) vs. response using a variable slope was used to fit the data. […] EC2× values were interpolated from the curve.

| SMILES | IC50 [1] [nM] | HRF2 ARE 2× [2] [nM] |
| --- | --- | --- |
| COc1nc(Nc2ccncc2)nc2c1CC[C@@H]1[C@@H](C)C(=O)C(C#N)=C[C@@]21C [T8] | 185 | 534 |
| COc1nc(-c2ccnc3ccccc23)nc2c1CC[C@@H]1[C@@H](C)C(=O)C(C#N)=C[C@@]21C [T9] | 67 | 510 |
| C[C@H]1C(=O)C(C#N)=C[C@@]2(C)c3nc(C4CCCCC4)nc(-c4ccccc4)c3CC[C@H]12 [T23] | 40 | 144 |
| C[C@H]1C(=O)C(C#N)=C[C@@]2(C)c3nc(-c4ccnc5ccccc45)nc(-c4ccccc4)c3CC[C@H]12 [T32] | 68 | 272 |
| COc1cc(-c2nc(-c3ccccc3)c3c(n2)[C@]2(C)C=C(C#N)C(=O)[C@H](C)[C@H]2CC3)ccn1 [T33] | 40 | 480 |
| CC1=C2CCc3c(-c4ccccc4F)nc(-c4ccnc5ccccc45)nc3[C@]2(C)C=C(C#N)C1=O [T38] | 374 | >2000 |
| C[C@H]1C(=O)C(C#N)=C[C@@]2(C)c3nc(-c4ccnc5ccccc45)nc(-c4cccc(F)c4)c3CC[C@H]12 [T39] | 63 | 427 |
| C[C@H]1C(=O)C(C#N)=C[C@@]2(C)c3nc(-c4ccnc5ccccc45)nc(-c4ccc(F)cc4)c3CC[C@H]12 [T40] | 63 | 273 |
| CC(C)Oc1nc(-c2ccnc3ccccc23)nc2c1CC[C@@H]1[C@@H](C)C(=O)C(C#N)=C[C@@]21C [T41] | 64 | 528 |
| CC(C)c1nc(-c2ccnc3ccccc23)nc2c1CC[C@@H]1[C@@H](C)C(=O)C(C#N)=C[C@@]21C [T42] | 165 | 513 |
| Cc1cc(-c2nc(-c3ccccc3)c3c(n2)[C@]2(C)C=C(C#N)C(=O)[C@H](C)[C@H]2CC3)ccn1 [T43] | 39 | 278 |
| C[C@H]1C(=O)C(C#N)=C[C@@]2(C)c3nc(C4CCN(C(=O)OC(C)(C)C)CC4)nc(-c4ccccc4)c3CC[C@H]12 [T44] | 60 | 596 |
| CC(=O)N1CCC(c2nc(-c3ccccc3)c3c(n2)[C@]2(C)C=C(C#N)C(=O)[C@H](C)[C@H]2CC3)CC1 [T46] | 177 | 735 |
| C[C@H]1C(=O)C(C#N)=C[C@@]2(C)c3nc(C4=CCCN(C(=O)OC(C)(C)C)C4)nc(-c4ccccc4)c3CC[C@H]12 [T47] | 38 | 622 |
| C[C@H]1C(=O)C(C#N)=C[C@@]2(C)c3nc(C4=CCCNC4)nc(-c4ccccc4)c3CC[C@H]12.Cl [T48] | 225 | 460 |
| CC(=O)N1CCC=C(c2nc(-c3ccccc3)c3c(n2)[C@]2(C)C=C(C#N)C(=O)[C@H](C)[C@H]2CC3)C1 [T49] | 181 | 491 |
| C[C@H]1C(=O)C(C#N)=C[C@@]2(C)c3nc(-c4ccnc5ccccc45)nc(-c4ccc(F)cc4F)c3CC[C@H]12 [T52] | 35 | 272 |
| C[C@H]1C(=O)C(C#N)=C[C@@]2(C)c3nc(-c4ccnc(C5CC5)c4)nc(-c4ccccc4F)c3CC[C@H]12 [T53] | 33 | 380 |
| C[C@H]1C(=O)C(C#N)=C[C@@]2(C)c3nc(-c4ccnc(C(F)(F)F)c4)nc(-c4ccccc4F)c3CC[C@H]12 [T54] | 31 | 483 |
| Cc1cnccc1-c1nc(-c2ccccc2F)c2c(n1)[C@]1(C)CC(C#N)=C(O)[C@H](C)[C@H]1CC2 [T55] | 590 | >2000 |
| C[C@H]1C(=O)C(C#N)=C[C@@]2(C)c3nc(-c4ccncc4F)nc(-c4ccccc4F)c3CC[C@H]12 [T57] | 77 | 419 |

| SMILES | IC50 [1] [nM] | HRF2 ARE 2× [2] [nM] |
| --- | --- | --- |
| Cc1cncc(-c2nc(-c3ccccc3F)c3c(n2)[C@]2(C)C=C(C#N)C(=O)[C@H](C)[C@H]2CC3)c1 [T58] | 69 | 155 |
| C[C@H]1C(=O)C(C#N)=C[C@@]2(C)c3nc(-c4cnc5ccccc5c4)nc(-c4ccccc4F)c3CC[C@H]12 [T59] | 34 | 311 |
| COC(=O)[C@@]1(C)C(=O)C=C[C@@]2(C)c3nc(-c4ccncc4)nc(OC)c3CC[C@H]12 [T135] | – | >2000 |
| CC(=O)N1CCN(c2nc(-c3ccccc3F)c3c(n2)[C@]2(C)C=C(C#N)C(=O)[C@H](C)[C@H]2CC3)CC1 [T139] | – | 222 |
| C=CC[C@H]1C(=O)C(C#N)=C[C@@]2(C)c3nc(-c4ccnc(C5CC5)c4)nc(-c4ccccc4F)c3CC[C@H]12 [T145] | – | 337 |
| CCC[C@H]1C(=O)C(C#N)=C[C@@]2(C)c3nc(-c4ccnc(C5CC5)c4)nc(-c4ccccc4F)c3CC[C@H]12 [T146] | – | 447 |
| C[C@H]1C(=O)C(C#N)=C[C@@]2(c3ccccc3)c3nc(-c4ccnc(C5CC5)c4)nc(-c4ccccc4F)c3CC[C@H]12 [T147] | – | >2000 |
| CCC[C@H]1C(=O)C(C#N)=C[C@@]2(C)c3nc(-c4ccnc5ccccc45)nc(-c4ccccc4F)c3CC[C@H]12 [T158] | – | 315 |
| CC(C)c1ccc(-c2nc(-c3ccnc4ccccc34)nc3c2CC[C@@H]2[C@@H](C)C(=O)C(C#N)=C[C@@]32C)cc1 [T161] | – | 158 |
| C[C@H]1C(=O)C(C#N)=C[C@@]2(C)c3nc(-c4ccnc5ccccc45)nc(-c4ccc(-c5ccccc5)cc4)c3CC[C@H]12 [T163] | – | 312 |
| CCC[C@@]12C=C(C#N)C(=O)[C@H](C)[C@H]1CCc1c(-c3ccccc3F)nc(-c3ccnc(C4CC4)c3)nc12 [T169] | – | 540 |
| C[C@H]1C(=O)C(C#N)=C[C@@]2(C)c3nc(-c4ccnc5ccccc45)nc(-c4ccccc4F)c3C[C@H]12 [T170] | – | 1222 |
| C[C@H]1C(=O)C(C#N)=C[C@@]2(C)c3nc(-c4ccnc(CF)c4)nc(-c4ccccc4F)c3C[C@H]12 [T171] | – | 1474 |
| Cc1cc(-c2nc(-c3ccccc3F)c3c(n2)[C@]2(C)C=C(C#N)C(=O)[C@H](C)[C@H]2C3)c2cccc(F)c2n1 [T172] | – | 998 |
| C[C@H]1C(=O)C(C#N)=C[C@@]2(C)c3nc(-c4cccc5ncccc45)nc(-c4ccccc4F)c3C[C@H]12 [T173] | – | >2000 |
| C[C@H]1C(=O)C(C#N)=C[C@@]2(C)c3nc(-c4ccnc(C5CC5)c4)nc(-c4ccccc4F)c3C[C@H]12 [T174] | – | >2000 |
| C[C@H]1C(=O)C(C#N)=C[C@@]2(C)c3nc(-c4ccnc(CCC(N)=O)c4)nc(-c4ccccc4F)c3CC[C@H]12 [T177] | – | 491 |
| CC[C@@]1(C)C(=O)C(C#N)=C[C@@]2(C)c3nc(-c4ccnc(C5CC5)c4)nc(-c4ccccc4F)c3CC[C@H]12 [T181] | – | 518 |
| Cc1cc(-c2nc(-c3ccccc3)c3c(n2)[C@]2(C)C=C(C#N)C(=O)[C@H](C)[C@H]2CCC3)ccn1 [T182] | – | 892 |
| Cc1cc(-c2nc(-c3ccc(F)cc3)c3c(n2)[C@]2(C)C=C(C(N)=O)C(=O)[C@H](C)[C@H]2CC3)ccn1 [T184] | – | 1832 |
| Cc1cc(-c2nc(-c3ccc(F)cc3)c3c(n2)[C@]2(C)CC(C#N)C(=O)[C@H](C)[C@H]2CC3)ccn1 (some centres unmarked) [T187] | – | >2000 |
